The results in this text go back to patent US6444644B1, “Anticoagulant peptide fragments derived from apolipoprotein B-100” (University College London, priority 1996, dated 2002).

No end group written: not given here.

Common to all, as to assay type: biochemical
For one experiment, the target named is T1, thromboplastin (Homo sapiens, UniProt P13726).
T1 construct: purchased Gamidor Ltd. (Oxfordshire, U.K.)
In words: Time-course inhibition of thromboplastin procoagulant activity (one-stage prothrombin time and two-stage amidolytic assay). The following applies: 500 nM, thromboplastin 100 nM (10 U/ml), 37° C. The procedure:
The one stage prothrombin time assay was carried out by the addition of 100 μl of the sample to 100 μl of 25 mM CaCl2 solution and incubation prior to addition of 100 μl of control plasma. The clotting time was measured on the coagulometer. The two-stage amidolytic assay was carried according to published procedures. In all cases the thromboplastin activity was calculated from a standard curve prepared previously and the percentage inhibition was calculated as 100×[…].
The apolipoprotein B-100 control peptide (fragment 3358-3372) containing the sequence TRLTRKRGLKLATAL was reconstituted in distilled water to 1 mM. The freeze-dried samples were reconstituted in distilled water to a concentration of 1 mM. Two 200 μl samples of thromboplastin (10 U/ml) were incubated with 500 nM KRAD-14 or apolipoprotein B-100 control peptide at 37° C. for 45 min. Another set of 200 μl samples of thromboplastin (10 U/ml) were incubated with either 500 nM KRAD-98 or the chloramphenicol acetyltransferase control protein. […] Following the incubation the thromboplastin activity in all the samples was measured by means of the one-stage prothrombin time assay and the two-stage amidolytic assay and the percentage inhibition calculated against the control containing distilled water.
The above experiments were repeated using 1 ml samples containing recombinant thromboplastin (10 U/ml) mixed with either 500 nM KRAD-14, 500 nM KRAD-98 or 500 nM apolipoprotein B-100, reconstituted as described before. The concentrations used are equivalent to that of apolipoprotein B-100 in normal plasma. 100 μl of the each sample was removed immediately and assayed for thromboplastin activity, by means of the one-stage prothrombin time assay. The rest of the samples were incubated at 37° C. and further 100 μl samples were removed at intervals up to 120 min and measured as before. The percentage inhibition was calculated against a control sample of thromboplastin.
Three 1 ml samples containing recombinant thromboplastin (10 U/ml) were mixed with 500 nM KRAD-14 (solid square), 500 nM KRAD-98 (open square) or 500 nM apolipoprotein […] (triangle), reconstituted as described before. The concentrations used are equivalent to that of apolipoprotein B-100 in normal plasma. 100 μl of the each sample was removed immediately and assayed for thromboplastin activity, by means of the one-stage prothrombin time assay. The rest of the samples were incubated at 37° C. and further 100 μl samples were removed at intervals up to 120 min and measured as before. The thromboplastin activity was calculated from a standard curve prepared previously and the percentage inhibition was calculated as 100×[…]. The curves are typical of data from four sets of experiments.

The target in the next experiment is thrombin (Homo sapiens, UniProt P00734). Nature of the experiment: Influence on thrombin activity (amidolytic and clotting). The following applies: 500 nM peptide, thrombin 100 nM. As for the experimental part:
Samples (1 ml) of either KRAD-14 peptide (500 nM) or each of the control peptides (500 nM) were incubated with thrombin (100 nM) at 37° C. and the thrombin activity measured at the beginning and at intervals up to 60 min as follows. The enzymatic activity of thrombin was measured by the addition of 100 μl aliquots to 0.45 ml of thrombin substrate (N-benzoyl-phe-val-arg-p-nitroanilide) (0.26 mM) which was then incubated at 37° C. for exactly 10 min, before the addition of 0.45 ml of 20% (w/v) acetic acid. The absorption was measured at 405 nm against a thrombin (100 nM) control assayed similarly. The procoagulant activity of thrombin was measured by the addition of 100 μl of the sample to control plasma (100 μl) and 25 mM CaCl2 solution and measuring the clotting time. A thrombin 100 nM) control was included in the assay against which comparisons were made.

The next experiment concerns the target factor Xa (Homo sapiens, UniProt P00742). Nature of the experiment: Influence on factor Xa activity (amidolytic and clotting in factor Xa-deficient plasma). The procedure:
Samples (1 ml) of either KRAD-14 peptide (500 nM) or the control peptide 500 nM) were incubated with pre-activated factor Xa (100 nM) at 37° C. and the factor Xa activity measured at the beginning and at intervals up to 60 min as follows. The enzymatic activity of factor Xa was measured by the addition of 100 μl aliquots to 0.45 ml of thrombin substrate (N-benzoyl-ile-glu-gly-arg-p-nitroanilide) (0.26 mM) which was then incubated at 37° C. for exactly 10 min, before the addition of 0.45 ml of 20% (w/v) acetic acid. The absorption was measured at 405 nm against a factor Xa (100 nM) control assayed similarly. The procoagulant activity of factor Xa was measured by the addition of 100 μl of the sample to factor Xa-deficient plasma (100 μl) and […] CACl2 solution and measuring the clotting time. A factor Xa (100 nM) control was included in the assay against which comparisons were made.
Three 1 ml samples containing recombinant KRAD-14 peptide (20 (♦), 40 (▾) and 80 (▪) nM) were mixed with factor Xa (100 nM). […] The rest of the samples were incubated at 37° C. and further 100 μl samples were removed at intervals up to 40 min and measured as before. The activity was measured against a standard curve and the percentage inhibition calculated against the initial factor Xa activity. […]

Chain of factor Xa (P00742 235-488 limits assumed): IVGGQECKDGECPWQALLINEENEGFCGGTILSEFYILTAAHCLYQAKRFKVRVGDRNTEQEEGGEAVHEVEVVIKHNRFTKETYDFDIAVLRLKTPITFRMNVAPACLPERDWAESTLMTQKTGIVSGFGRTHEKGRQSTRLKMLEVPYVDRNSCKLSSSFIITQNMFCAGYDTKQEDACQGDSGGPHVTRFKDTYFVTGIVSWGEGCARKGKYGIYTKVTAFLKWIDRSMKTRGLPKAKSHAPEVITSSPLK
Chain of factor Xa (P00742 41-179 limits assumed): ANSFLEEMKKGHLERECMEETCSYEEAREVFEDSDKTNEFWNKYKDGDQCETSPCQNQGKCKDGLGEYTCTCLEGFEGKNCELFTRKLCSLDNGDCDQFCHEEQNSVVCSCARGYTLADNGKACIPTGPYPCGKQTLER
T1 sequence (P13726 33-295): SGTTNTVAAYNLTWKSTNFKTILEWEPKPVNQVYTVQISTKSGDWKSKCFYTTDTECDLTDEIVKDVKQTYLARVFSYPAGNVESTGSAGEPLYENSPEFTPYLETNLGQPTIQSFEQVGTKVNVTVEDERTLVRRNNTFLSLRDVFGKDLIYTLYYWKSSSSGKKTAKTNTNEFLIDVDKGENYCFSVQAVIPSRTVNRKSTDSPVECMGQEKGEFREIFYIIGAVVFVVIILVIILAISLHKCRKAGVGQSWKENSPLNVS

For the sequence KAQSKKNKHRHSTT [KRAD-14], the inhibition (usually how much of the control response was suppressed) at 0.5 µM against thromboplastin (2 min incubation) stood at 90%. At thromboplastin (4 min incubation (maximum)), this sequence displayed an inhibition at 0.5 µM of 98%. For the same sequence, at thrombin, the “effect on the amidolytic proteolytic activity of thrombin” value was “did not affect” and the “effect on the clotting ability of thrombin” value was “did not affect”. Besides, the “effect on the amidolytic activity of factor Xa” value at factor Xa (500 nM peptide) was “did not affect”. Further, the Kd on factor Xa (factor Xa 100 nM, 37° C., factor Xa deficient plasma, read-out: Kdapp, inhibition of coagulation upon pre-incubation with factor Xa) was 275 nM.
